Experimental data published in patent publication US11389469B2, “Targeting NAD+ to treat chemotherapy and radiotherapy induced cognitive impairment, neuropathies and inactivity” (NewSouth Innovations Pty Ltd, priority 2015, dated 2022).

Experiments:
Male Sprague-Dawley rats [1] = experiment: Voluntary wheel running after doxorubicin; assay type: in vivo, rat
Method: (§1) FIGS. 1A-1D. […] A) Voluntary wheel running, followed by B) the von Frey test for mechanical allodynia (pain) at day 3. At day 8, C) short term spatial memory was assessed using the novel location recognition test. At day 9, D) short term object memory was assessed using the novel object recognition test. n=8, *p<0.05, **p<0.01, ****p<0.0001. Dunn's multiple comparison test, Kruskal Wallis one-way ANOVA.
(§2) In this Example, the strategy is to raise NAD^+ levels during chemotherapy treatment by administering animals with a cell permeable NAD^+ precursor known as nicotinamide mononucleotide (NMN). […] As expected, a single dose of doxorubicin caused neurocognitive defects including reduced voluntary wheel running, increased pain, and reduced short term spatial memory (FIG. 1).

Male Sprague-Dawley rats [2] = experiment: von Frey test for mechanical allodynia (pain) after doxorubicin; assay type: in vivo, rat
Method: as §1, §2

Male Sprague-Dawley rats [3] = experiment: Novel location recognition test (short term spatial memory) after doxorubicin; assay type: in vivo, rat
Method: as §1, §2

muscle mitochondria = experiment: Mitochondrial respiration in Clarke type electrode; details: aged NMN treated mice, preliminary data FIG. 3C
elderly mice = details: reference [17]; cited from earlier work

Compound	effect of NMN on doxorubicin-reduced voluntary wheel running (Male Sprague-Dawley rats [1]; NMN in drinking water (500 mg/L) 24 hr prior and subsequent, plus 200 mg/kg co-administered with doxorubicin 4 mg/kg i.p.)	effect of NMN on doxorubicin-increased pain (mechanical allodynia, von Frey) (Male Sprague-Dawley rats [2]; NMN in drinking water (500 mg/L) plus 200 mg/kg co-administered with doxorubicin 4 mg/kg i.p., day 3)	effect of NMN on doxorubicin-reduced short term spatial memory (novel location recognition) (Male Sprague-Dawley rats [3]; NMN in drinking water (500 mg/L) plus 200 mg/kg co-administered with doxorubicin 4 mg/kg i.p., day 8)	mitochondrial dysfunction (respiratory capacity of muscle mitochondria) (muscle mitochondria)	metabolism and aspects of ageing (elderly mice)	voluntary wheel running, effect of doxorubicin (Male Sprague-Dawley rats [1]; single i.p. dose of doxorubicin (4 mg/kg), male SD rats)	pain (mechanical allodynia, von Frey test), effect of doxorubicin (Male Sprague-Dawley rats [2]; single i.p. dose of doxorubicin (4 mg/kg), day 3, male SD rats)	short term spatial memory (novel location recognition test), effect of doxorubicin (Male Sprague-Dawley rats [3]; single i.p. dose of doxorubicin (4 mg/kg), day 8, male SD rats)
Nicotinamide Mononucleotide [NMN]	reduced the effects of doxorubicin	reduced the effects of doxorubicin	reduced the effects of doxorubicin	reverse	improve metabolism and reverse aspects of ageing	–	–	–
NC(=O)c1ccc[n+]([C@@H]2O[C@H](CO)[C@@H](O)[C@H]2O)c1 [NR, Nicotinamide Riboside]	–	–	–	–	improve metabolism and reverse aspects of ageing	–	–	–
COc1cccc2c1C(=O)c1c(O)c3c(c(O)c1C2=O)C[C@@](O)(C(=O)CO)C[C@@H]3O[C@H]1C[C@H](N)[C@H](O)[C@H](C)O1 [doxorubicin, reference compound]	–	–	–	–	–	reduced	increased	reduced
